Assay results taken from patent US20200316023A1, “Method Of Producing Bacterially Derived Indole-3-Propionic Acid And Compositions Comprising Same” (The Procter & Gamble Company, priority 2019, published 2020).

Test: pharmacokinetic studies of IPA dose versus serum IPA levels
Type: in vivo
Settings: dose of from about 5 to about 10 mg of IPA
Description: In some aspects, the composition can comprise from about 5 to about 10 mg of IPA per dose of the composition.

## O=C(O)CCc1c[nH]c2ccccc12 [IPA, Indole-3-propionic acid]
  IPA levels in serum relative to endogenous baseline: increase IPA levels in serum beyond endogenous baseline values
